From patent US20140051575A1 (priority 2011, published 2014)

Tests used:
[1] = Measurement of logP values by HPLC on reversed phase columns (EEC directive 79/831 Annex V.A8); format: physicochemical; details: pH 2.7, 0.1% formic acid in water / acetonitrile gradient, calibration with alkan-2-ones
Protocol: Measurement of logP values was performed according EEC directive 79/831 Annex V.A8 by HPLC (High Performance Liquid Chromatography) on reversed phase columns with the following methods:
Measurement of LC-MS was done at pH 2.7 with 0.1% formic acid in water and with acetonitrile (contains 0.1% formic acid) as eluent with a linear gradient from 10% acetonitrile to 95% acetonitrile.
Calibration was done with not branched alkan2-ones (with 3 to 16 carbon atoms) with known logP-values (measurement of logP values using retention times with linear interpolation between successive alkanones). lambda-maX-values were determined using UV-spectra from 200 nm to 400 nm and the peak values of the chromatographic signals.

Phytophthora infestans = format: in vivo; details: tomato plants, preventive spray, 500 ppm of active ingredient, evaluated 7 days after inoculation; 0% = untreated control, 100% = no disease
Plasmopara viticola = assay: Plasmopara test (grapevines)/preventive; format: in vivo; details: preventive spray, 10 ppm of active ingredient, evaluated 6 days after inoculation, 0% = untreated control, 100% = no disease
Protocol: To produce a suitable preparation of active compound, 1 part by weight of active compound is mixed with the stated amounts of solvent and emulsifier, and the concentrate is diluted with water to the desired concentration.
To test for preventive activity, young plants are sprayed with the preparation of active compound at the stated rate of application. After the spray coating has dried on, the plants are inoculated with an aqueous spore suspension of Plasmopara viticola and then remain for 1 day in an incubation cabinet at approximately 20° C. and a relative atmospheric humidity of 100%. The plant is subsequently placed for 4 days in a greenhouse at approximately 21° C. and a relative atmospheric humidity of approximately 90%. The plants are then misted and placed for 1 day in an incubation cabinet.
The test is evaluated 6 days after the inoculation. 0% means an efficacy which corresponds to that of the untreated control, while an efficacy of 100% means that no disease is observed.

SMILES	Log P [1]	Eff. % (Phytophthora infestans)	Eff. % (Plasmopara viticola)
Cn1nnnc1C(=NOCc1cccc(NC(=O)COCC2CCC2)n1)c1ccccc1 [Example 4]	3.83	97%	80%
CC(OCC1CC1)C(=O)Nc1ccc(F)c(CON=C(c2ccccc2)c2nnnn2C)n1 (centres unmarked) [Example 9]	3.71	100%	89%
CC(OCC1CCC1)C(=O)Nc1cccc(CON=C(c2ccccc2)c2nnnn2C)n1 (centres unmarked) [Example 12]	4.16	100%	84%
Cn1nnnc1C(=NOCc1csc(NC(=O)COCC2CC2)n1)c1ccccc1 [Example 13]	3.04	–	79%
Cn1nnnc1C(=NOCc1csc(NC(=O)COCC2CCC2)n1)c1ccccc1 [Example 15]	3.52	100%	100%
Cn1nnnc1C(=NOCc1csc(NC(=O)COCC2CCCC2)n1)c1ccccc1 [Example 16]	3.9	97%	90%
Cn1nnnc1C(=NOCc1csc(NC(=O)COCC2CCCCC2)n1)c1ccccc1 [Example 17]	4.29	100%	94%
CC(OCC1CCCC1)C(=O)Nc1nc(CON=C(c2ccccc2)c2nnnn2C)cs1 (centres unmarked) [Example 19]	4.25	100%	91%
CC(OCC1CCC1)C(=O)Nc1nc(CON=C(c2ccccc2)c2nnnn2C)cs1 (centres unmarked) [Example 22]	3.83	100%	88%
Cc1nnnn1C(=NOCc1cccc(NC(=O)C(C)OCC2CC2)n1)c1ccccc1 (centres unmarked) [Example 24]	3.63	100%	81%
Cc1nnnn1C(=NOCc1cccc(NC(=O)COCC2CCC2)n1)c1ccccc1 [Example 25]	3.92	97%	80%
Cc1nnnn1C(=NOCc1csc(NC(=O)COCC2CC2)n1)c1ccccc1 [Example 33]	3.11	–	94%
Cc1nnnn1C(=NOCc1csc(NC(=O)COCC2CCC2)n1)c1ccccc1 [Example 35]	3.59	100%	91%
Cc1nnnn1C(=NOCc1csc(NC(=O)C(C)OCC2CCC2)n1)c1ccccc1 (centres unmarked) [Example 42]	3.9	100%	93%
CC(C)CCOCC(=O)Nc1nc(CON=C(c2ccccc2)c2nnnn2C)cs1 [Example 45]	3.8	100%	91%
Cn1nnnc1C(=NOCc1cccc(NC(=O)COCc2ccccc2)n1)c1ccccc1 [Example 48]	3.63	95%	96%
CC(OCc1ccccc1)C(=O)Nc1nc(CON=C(c2ccccc2)c2nnnn2C)cs1 (centres unmarked) [Example 49]	3.71	–	92%
CC(OCC1CCCO1)C(=O)Nc1nc(CON=C(c2ccccc2)c2nnnn2C)cs1 (centres unmarked) [Example 60]	3.15	100%	85%
Cc1ccccc1CSCC(=O)Nc1cccc(CON=C(c2ccccc2)c2nnnn2C)n1 [Example 65]	–	–	84%
Cn1nnnc1C(=NOCc1cccc(NC(=O)CSCC2CC2)n1)c1ccccc1 [Example 67]	3.51	–	78%
CC(SCc1ccccc1)C(=O)Nc1nc(CON=C(c2ccccc2)c2nnnn2C)cs1 (centres unmarked) [Example 71]	3.8	100%	82%
CC(SC1CCCCC1)C(=O)Nc1nc(CON=C(c2ccccc2)c2nnnn2C)cs1 (centres unmarked) [Example 74]	4.12	100%	82%
C=CCSCC(=O)Nc1nc(CON=C(c2ccccc2)n2nnnc2C)cs1 [Example 83]	3.15	88%	–
Cc1nnnn1C(=NOCc1csc(NC(=O)CSCc2cccs2)n1)c1ccccc1 [Example 84]	3.51	98%	–
C=CCSC(C)C(=O)Nc1nc(CON=C(c2ccccc2)n2nnnc2C)cs1 (centres unmarked) [Example 85]	3.35	98%	–
Cc1nnnn1C(=NOCc1csc(NC(=O)CSCc2ccccc2)n1)c1ccccc1 [Example 86]	3.57	93%	–
Cc1nnnn1C(=NOCc1csc(NC(=O)CSCC2CC2)n1)c1ccccc1 [Example 87]	3.31	100%	–
Cc1ccccc1CSCC(=O)Nc1nc(CON=C(c2ccccc2)n2nnnc2C)cs1 [Example 88]	4.06	100%	84%

SMILES	Log P [1]	Eff. % (Phytophthora infestans)	Eff. % (Plasmopara viticola)
Cc1nnnn1C(=NOCc1csc(NC(=O)CSC2CCCCC2)n1)c1ccccc1 [Example 89]	3.96	100%	–
Cc1nnnn1C(=NOCc1csc(NC(=O)CSC2CCCC2)n1)c1ccccc1 [Example 90]	3.65	95%	–
Cn1nnnc1C(=NOCc1cccc(NC(=O)C2Cc3ccccc32)n1)c1ccccc1 (centres unmarked) [Example 91]	3.58	–	77%
Cn1nnnc1C(=NOCc1cccc(NC(=O)C2CC2c2ncc(C(F)(F)F)cc2Cl)n1)c1ccccc1 (centres unmarked) [Example 92]	4.54	98%	–
Cn1nnnc1C(=NOCc1csc(NC(=O)C2CC2c2ncc(C(F)(F)F)cc2Cl)n1)c1ccccc1 (centres unmarked) [Example 93]	4.37	98%	–
Cn1nnnc1C(=NOCc1cccc(NC(=O)C(C)(C)CSC2CCCCC2)n1)c1ccccc1 [Example 94]	4.98	100%	–
CC(OCC(=O)Nc1cccc(CON=C(c2ccccc2)c2nnnn2C)n1)c1ccccc1 (centres unmarked) [Example 95]	3.94	100%	–
COC(C)CC(CC(=O)Nc1cccc(CON=C(c2ccccc2)c2nnnn2C)n1)OC (centres unmarked) [Example 96]	2.9	100%	78%
CC(COCc1ccccc1)C(=O)Nc1cccc(CON=C(c2ccccc2)c2nnnn2C)n1 (centres unmarked) [Example 97]	3.85	100%	–
Cn1nnnc1C(=NOCc1cccc(NC(=O)CCOCc2ccccc2)n1)c1ccccc1 [Example 99]	3.48	90%	–
Cn1nnnc1C(=NOCc1cccc(NC(=O)CCSCc2ccc(F)cc2)n1)c1ccccc1 [Example 100]	3.87	95%	–
Cn1nnnc1C(=NOCc1cccc(NC(=O)CCSCc2ccccc2)n1)c1ccccc1 [Example 101]	3.83	90%	–
Cn1nnnc1C(=NOCc1csc(NC(=O)C(C)(C)CSC2CCCCC2)n1)c1ccccc1 [Example 102]	4.77	100%	–
COC(C)CC(CC(=O)Nc1nc(CON=C(c2ccccc2)c2nnnn2C)cs1)OC (centres unmarked) [Example 103]	2.78	95%	–
CC(COCc1ccccc1)C(=O)Nc1nc(CON=C(c2ccccc2)c2nnnn2C)cs1 (centres unmarked) [Example 104]	3.65	100%	–
CC(OCC(=O)Nc1nc(CON=C(c2ccccc2)c2nnnn2C)cs1)c1ccccc1 (centres unmarked) [Example 105]	3.7	95%	–
Cn1nnnc1C(=NOCc1csc(NC(=O)CCOCc2ccccc2)n1)c1ccccc1 [Example 106]	3.33	93%	–
Cn1nnnc1C(=NOCc1csc(NC(=O)CCSCc2ccc(F)cc2)n1)c1ccccc1 [Example 107]	3.73	95%	–
Cn1nnnc1C(=NOCc1csc(NC(=O)CCSCc2ccccc2)n1)c1ccccc1 [Example 108]	3.69	90%	–
Cc1nnnn1C(=NOCc1cccc(NC(=O)C(C)(C)CSC2CCCCC2)n1)c1ccccc1 [Example 109]	5.08	95%	–
Cc1nnnn1C(=NOCc1cccc(NC(=O)CCOCc2ccccc2)n1)c1ccccc1 [Example 110]	3.55	85%	–
Cc1nnnn1C(=NOCc1cccc(NC(=O)CCSCc2ccc(F)cc2)n1)c1ccccc1 [Example 111]	3.92	90%	–
Cc1nnnn1C(=NOCc1cccc(NC(=O)CCSCc2ccccc2)n1)c1ccccc1 [Example 112]	3.89	88%	–
Cc1nnnn1C(=NOCc1csc(NC(=O)C(C)(C)CSC2CCCCC2)n1)c1ccccc1 [Example 113]	4.85	98%	–
Cc1nnnn1C(=NOCc1csc(NC(=O)CCOCc2ccccc2)n1)c1ccccc1 [Example 114]	3.37	93%	–
Cc1nnnn1C(=NOCc1csc(NC(=O)CCSCc2ccc(F)cc2)n1)c1ccccc1 [Example 115]	3.78	80%	–
Cc1nnnn1C(=NOCc1csc(NC(=O)CCSCc2ccccc2)n1)c1ccccc1 [Example 116]	3.73	80%	–
